Each structure is given as a SMILES string. Where only a bound is given, the exact number is not on record here.

Data on 31 molecules can be found in US9790215B2 (FLATLEY DISCOVERY LAB, LLC, priority 2013, dated 2017).

The test deals with T1, human ΔF508-CFTR (Homo sapiens, UniProt P13569, DEL508-508).
T1 construct: expressed in transfected cells
Kind of test: CFTR-YFP High Throughput Assay (YFP halide flux in FRT cells). It is filed as cell-based. To be noted: FRT cells expressing human ΔF508-CFTR and YFP; for EC50: forskolin stimulated. The method in brief: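 FRT cells stably co-expressing human ΔF508-CFTR and halide-sensitive YFP-H148Q/I152L were treated with compound […] for 24–26 h at 37 °C (corrector mode), washed, then stimulated with 20 μM forskolin plus 30 μM potentiator P3 for 60–120 min at room temperature. Iodide-induced YFP quench (ex 500/em 540 nm) rates came from least-squares fitting.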

T1 sequence (P13569 with tags, fused parts or gaps DEL508-508): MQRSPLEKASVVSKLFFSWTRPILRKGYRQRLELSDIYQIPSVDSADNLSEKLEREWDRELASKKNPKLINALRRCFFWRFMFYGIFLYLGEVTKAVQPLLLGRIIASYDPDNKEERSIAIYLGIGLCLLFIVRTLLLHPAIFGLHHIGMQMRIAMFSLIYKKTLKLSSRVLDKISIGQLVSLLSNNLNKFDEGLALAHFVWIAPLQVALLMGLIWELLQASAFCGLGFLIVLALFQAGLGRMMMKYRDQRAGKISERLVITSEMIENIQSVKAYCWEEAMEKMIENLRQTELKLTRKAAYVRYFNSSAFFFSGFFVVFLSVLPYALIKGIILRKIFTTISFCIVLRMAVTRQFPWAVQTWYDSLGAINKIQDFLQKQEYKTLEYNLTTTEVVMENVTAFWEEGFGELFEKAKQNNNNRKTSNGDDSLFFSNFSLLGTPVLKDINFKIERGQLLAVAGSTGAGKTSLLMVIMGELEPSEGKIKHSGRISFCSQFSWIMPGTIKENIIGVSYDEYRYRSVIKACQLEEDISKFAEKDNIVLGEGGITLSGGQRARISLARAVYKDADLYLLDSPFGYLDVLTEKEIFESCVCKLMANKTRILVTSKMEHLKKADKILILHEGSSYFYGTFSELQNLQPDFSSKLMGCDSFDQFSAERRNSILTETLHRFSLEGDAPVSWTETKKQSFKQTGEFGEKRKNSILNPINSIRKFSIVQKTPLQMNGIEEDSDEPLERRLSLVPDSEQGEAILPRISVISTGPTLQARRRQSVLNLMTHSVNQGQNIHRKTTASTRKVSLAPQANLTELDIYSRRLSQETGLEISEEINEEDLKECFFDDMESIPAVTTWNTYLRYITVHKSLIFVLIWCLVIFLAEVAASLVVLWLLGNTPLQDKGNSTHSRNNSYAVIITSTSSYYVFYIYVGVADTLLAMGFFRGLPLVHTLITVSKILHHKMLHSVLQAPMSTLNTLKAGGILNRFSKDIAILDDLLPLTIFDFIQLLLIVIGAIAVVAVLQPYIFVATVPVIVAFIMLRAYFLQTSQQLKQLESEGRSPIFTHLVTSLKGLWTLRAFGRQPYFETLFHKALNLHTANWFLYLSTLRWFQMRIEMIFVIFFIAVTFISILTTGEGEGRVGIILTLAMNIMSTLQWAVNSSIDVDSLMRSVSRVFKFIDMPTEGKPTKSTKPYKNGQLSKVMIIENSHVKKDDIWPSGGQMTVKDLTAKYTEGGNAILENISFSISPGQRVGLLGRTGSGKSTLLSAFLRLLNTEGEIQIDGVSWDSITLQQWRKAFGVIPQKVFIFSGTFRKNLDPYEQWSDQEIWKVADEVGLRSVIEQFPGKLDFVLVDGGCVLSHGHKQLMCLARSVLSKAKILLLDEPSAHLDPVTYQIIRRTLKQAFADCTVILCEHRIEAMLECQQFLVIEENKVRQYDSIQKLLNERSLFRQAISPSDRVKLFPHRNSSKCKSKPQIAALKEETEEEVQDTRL

By EC50 is commonly meant the concentration that produces a half-maximal response. Consider `CCN(C(=O)c1nn(-c2cccnc2)c(=O)c2c1c1ccccc1n2C)c1ccccc1` [Example 119], for which the EC50 is under 10 µM.

For `CCN(C(=O)c1nn(-c2ccncc2)c(=O)c2c1c1ccccc1n2C)c1ccccc1` [Example 120, N-ethyl-5-methyl-4-oxo-N-phenyl-3-(pyridin-4-yl)-4,5-dihydro-3H-pyridazino[4,5-b]indole-1-carboxamide], the EC50 is under 10 µM.

In the case of `CCN(C(=O)c1nn(-c2nccs2)c(=O)c2c1c1ccccc1n2C)c1ccccc1` [Example 121, N-ethyl-5-methyl-4-oxo-N-phenyl-3-(thiazol-2-yl)-4,5-dihydro-3H-pyridazino[4,5-b]indole-1-carboxamide], the EC50 was under 10 µM.

`CCN(C(=O)c1nn(-c2ncccn2)c(=O)c2c1c1ccccc1n2C)c1ccccc1` [Example 122, N-ethyl-5-methyl-4-oxo-N-phenyl-3-(pyrimidin-2-yl)-4,5-dihydro-3H-pyridazino[4,5-b]indole-1-carboxamide]: the EC50 is 10 to 20 µM.

As for `CCN(C(=O)c1nn(-c2nc3ccccc3s2)c(=O)c2c1c1ccccc1n2C)c1ccccc1` [Example 123, 3-(benzo[d]thiazol-2-yl)-N-ethyl-5-methyl-4-oxo-N-phenyl-4,5-dihydro-3H-pyridazino[4,5-b]indole-1-carboxamide], the EC50 was in the range of 10 to 20 µM.

As for `CCN(C(=O)c1nn(-c2nc3ccccc3n2C)c(=O)c2c1c1ccccc1n2C)c1ccccc1` [Example 124, N-ethyl-5-methyl-3-(1-methyl-1H-benzo[d]imidazol-2-yl)-4-oxo-N-phenyl-4,5-dihydro-3H-pyridazino[4,5-b]indole-1-carboxamide], the EC50 was over 20 µM.

For the molecule `CCN(C(=O)c1nn(-c2ccccc2F)c(=O)c2c1c1ccccc1n2C)c1ccccc1` [Example 125, N-ethyl-3-(2-fluorophenyl)-5-methyl-4-oxo-N-phenyl-4,5-dihydro-3H-pyridazino[4,5-b]indole-1-carboxamide], the EC50 was under 10 µM.

With `CCN(C(=O)c1nn(-c2ccccc2)c(=O)c2c1c1ccccc1n2C)c1cccc(F)c1` [Example 126, N-ethyl-N-(3-fluorophenyl)-5-methyl-4-oxo-3-phenyl-4,5-dihydro-3H-pyridazino[4,5-b]indole-1-carboxamide], the EC50 was under 10 µM.

Regarding `CCN(C(=O)c1nn(-c2ccccc2F)c(=O)c2c1c1ccccc1n2C)c1ccccc1` [Example 127, N-ethyl-3-(2-fluorophenyl)-5-methyl-4-oxo-N-phenyl-4,5-dihydro-3H-pyridazino[4,5-b]indole-1-carboxamide], the EC50 is under 10 µM. The “% Efficacy (Emax normalized to the positive control)” value (Emax normalized to the positive control) is “+++ (EMAX > 80%)”.

As to `CCN(C(=O)c1nn(-c2cnc3ccccc3c2)c(=O)c2c1c1ccccc1n2C)c1ccccc1` [Example 128, N-ethyl-5-methyl-4-oxo-N-phenyl-3-(quinolin-3-yl)-4,5-dihydro-3H-pyridazino[4,5-b]indole-1-carboxamide], the EC50 is under 10 µM.

Regarding `CCN(C(=O)c1nn(-c2ccc(Cl)cc2)c(=O)c2c1c1ccccc1n2C)c1ccccc1` [Example 129, 3-(4-chlorophenyl)-N-ethyl-5-methyl-4-oxo-N-phenyl-4,5-dihydro-3H-pyridazino[4,5-b]indole-1-carboxamide], the EC50 was under 10 µM.

For `CCN(C(=O)c1nn(-c2ccc(OC)cc2)c(=O)c2c1c1ccccc1n2C)c1ccccc1` [Example 130, N-ethyl-3-(4-methoxyphenyl)-5-methyl-4-oxo-N-phenyl-4,5-dihydro-3H-pyridazino[4,5-b]indole-1-carboxamide], the EC50 is under 10 µM.

With `CCN(C(=O)c1nn(-c2ccc(C)cn2)c(=O)c2c1c1ccccc1n2C)c1ccccc1` [Example 131, N-ethyl-5-methyl-3-(5-methylpyridin-2-yl)-4-oxo-N-phenyl-4,5-dihydro-3H-pyridazino[4,5-b]indole-1-carboxamide], the EC50 is under 10 µM.

`CCN(C(=O)c1nn(-c2ccccc2)c(=O)c2c1c1ccccc1n2C)c1cccc(Cl)c1` [Example 132, N-(3-chlorophenyl)-N-ethyl-5-methyl-4-oxo-3-phenyl-4,5-dihydro-3H-pyridazino[4,5-b]indole-1-carboxamide]: the EC50 was under 10 µM.

Consider `CCN(C(=O)c1nn(-c2ccc(C)cc2)c(=O)c2c1c1ccccc1n2C)c1ccc2c(c1)OC(F)(F)O2` [Example 133, N-(2,2-difluorobenzo[d][1,3]dioxol-5-yl)-N-ethyl-5-methyl-4-oxo-3-(p-tolyl)-4,5-dihydro-3H-pyridazino[4,5-b]indole-1-carboxamide], for which the EC50 is under 10 µM.

Turning to `CCN(C(=O)c1nn(-c2ccc(C)cc2)c(=O)c2c1c1ccccc1n2C)c1cc(Cl)ccc1C(=O)O` [Example 134, 4-chloro-2-(N-ethyl-5-methyl-4-oxo-3-(p-tolyl)-4,5-dihydro-3H-pyridazino[4,5-b]indole-1-carboxamido)benzoic acid], the EC50 was under 10 µM.

With `Cc1ccc(-n2nc(C(=O)Nc3cc(Cl)ccc3C(=O)O)c3c4ccccc4n(C)c3c2=O)cc1` [Example 135, 4-chloro-2-(5-methyl-4-oxo-3-(p-tolyl)-4,5-dihydro-3H-pyridazino[4,5-b]indole-1-carboxamido)benzoic acid], the EC50 was under 10 µM.

Regarding `CCN(C(=O)c1nn(Cc2ccccc2)c(=O)c2c1c1ccccc1n2C)c1ccccc1` [Example 136, 3-benzyl-N-ethyl-5-methyl-4-oxo-N-phenyl-4,5-dihydro-3H-pyridazino[4,5-b]indole-1-carboxamide], the EC50 was over 20 µM.

Regarding `CCN(C(=O)c1nn(C2CCN(Cc3ccccc3)CC2)c(=O)c2c1c1ccccc1n2C)c1ccccc1` [Example 137, 3-(1-benzylpiperidin-4-yl)-N-ethyl-5-methyl-4-oxo-N-phenyl-4,5-dihydro-3H-pyridazino[4,5-b]indole-1-carboxamide], the EC50 was under 10 µM.

`CCN(C(=O)c1nn(C(C)C)c(=O)c2c1c1ccccc1n2C)c1cccc(Cl)c1` [Example 140, N-(3-chlorophenyl)-N-ethyl-3-isopropyl-5-methyl-4-oxo-4,5-dihydro-3H-pyridazino[4,5-b]indole-1-carboxamide]: the EC50 was under 10 µM.

For `CCN(C(=O)Cn1nc(C(=O)N(CC)c2cccc(Cl)c2)c2c3ccccc3n(C)c2c1=O)c1ccc2c(c1)OC(F)(F)O2` [Example 141, N-(3-chlorophenyl)-3-(2-((2,2-difluorobenzo[d][1,3]dioxol-5-yl)(ethyl)amino)-2-oxoethyl)-N-ethyl-5-methyl-4-oxo-4,5-dihydro-3H-pyridazino[4,5-b]indole-1-carboxamide], the EC50 is under 10 µM.

As to `CCc1ccc(N(CC)C(=O)Cn2nc(C(=O)N(CC)c3cccc(Cl)c3)c3c4ccccc4n(C)c3c2=O)cc1` [Example 142, N-(3-chlorophenyl)-N-ethyl-3-(2-(ethyl(4-ethylphenyl)amino)-2-oxoethyl)-5-methyl-4-oxo-4,5-dihydro-3H-pyridazino[4,5-b]indole-1-carboxamide], the EC50 was under 10 µM.

As to `CCN(C(=O)c1nn(C2CCCCC2)c(=O)c2c1c1ccccc1n2C)c1cccc(Cl)c1` [Example 143, N-(3-chlorophenyl)-3-cyclohexyl-N-ethyl-5-methyl-4-oxo-4,5-dihydro-3H-pyridazino[4,5-b]indole-1-carboxamide], the EC50 was under 10 µM.

Consider `CCN(C(=O)c1nn(C(C)C)c(=O)c2c1c1ccccc1n2C)c1cc(Cl)ccc1C#N` [Example 144, N-(5-chloro-2-cyanophenyl)-N-ethyl-3-isopropyl-5-methyl-4-oxo-4,5-dihydro-3H-pyridazino[4,5-b]indole-1-carboxamide], for which the EC50 was under 10 µM.

`CCN(CC)C(=O)c1nn(CC(=O)N(CC)c2ccc3c(c2)OC(F)(F)O3)c(=O)c2c1c1ccccc1n2C` [Example 145, 3-(2-((2,2-difluorobenzo[d][1,3]dioxol-5-yl)(ethyl)amino)-2-oxoethyl)-N,N-diethyl-5-methyl-4-oxo-4,5-dihydro-3H-pyridazino[4,5-b] indole-1-carboxamide]: the EC50 is under 10 µM.

Regarding `CCN(C(=O)c1nn(-c2ccc(C)cc2)c(=O)c2c1c1ccccc1n2C1CCC1)c1ccccc1` [Example 146, 5-cyclobutyl-N-ethyl-4-oxo-N-phenyl-3-p-tolyl-4,5-dihydro-3H-pyridazino[4,5-b]indole-1-carboxamide], the EC50 fell in the range of 10 to 20 µM.

As for `CCN(C(=O)c1nn(-c2ccc(C)cc2)c(=O)c2[nH]c3ccccc3c12)c1ccccc1` [Example 147, N-Ethyl-4-oxo-N-phenyl-3-p-tolyl-4,5-dihydro-3H-pyridazino[4,5-b]indole-1-carboxamide], the EC50 is under 10 µM.

Turning to `CCN(C(=O)c1nn(-c2ccc(C)cc2)c(=O)c2[nH]c3ccccc3c12)c1cccc(Cl)c1` [Example 148, N-(3-chlorophenyl)-N-ethyl-4-oxo-3-(p-tolyl)-4,5-dihydro-3H-pyridazino[4,5-b]indole-1-carboxamide], the EC50 was under 10 µM.

Take `CCN(C(=O)Cn1ncc2c([nH]c3ccccc32)c1=O)c1ccc2c(c1)OC(F)(F)O2` [Example 149, N-(2,2-difluorobenzo[d][1,3]dioxol-5-yl)-N-ethyl-2-(4-oxo-4,5-dihydro-3H-pyridazino[4,5-b]indol-3-yl)acetamide]: the EC50 is under 10 µM.

Turning to `CCN(C(=O)c1nn(-c2ccc(C)cc2)c(=O)c2c1c1ccccc1n2CC#N)c1ccccc1` [Example 150, 5-(cyanomethyl)-N-ethyl-4-oxo-N-phenyl-3-(p-tolyl)-4,5-dihydro-3H-pyridazino[4,5-b]indole-1-carboxamide], the EC50 was over 20 µM.

Regarding `CCN(C(=O)c1nn(-c2ccc(C)cc2)c(=O)c2c1c1ccccc1n2CC(=O)O)c1ccccc1` [Example 151, 2-(1-(ethyl(phenyl)carbamoyl)-4-oxo-3-(p-tolyl)-3H-pyridazino[4,5-b]indol-5(4H)-yl)acetic acid], the EC50 was over 20 µM.
